The subject of this test is L1210 leukemia ip in BDF1 mice, survival T/C. In words: NCI In Vivo Anticancer Drug Screen. Data for tumor model L1210 Leukemia (intraperitoneal) in B6D2F1 (BDF1) mice. As to conditions: higher = longer survival. The gist of the method: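 Transplantable tumor model; survival measured in treated vs vehicle control mice. Value = treated/control.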
The mark [1] stands for this setting: endpoint: mean survival time, dose: 100.0 mg/kg/injection, schedule: Q01DX009 (ip), vehicle: saline with Tween-80.
The mark [2] stands for this setting: endpoint: mean survival time, dose: 100.0 mg/kg/injection, schedule: Q04DX003 (ip), vehicle: saline with Tween-80.
Where [3] appears, read: endpoint: mean survival time, dose: 200.0 mg/kg/injection, schedule: Q01DX009 (ip), vehicle: saline with Tween-80.
The mark [4] stands for this setting: endpoint: mean survival time, dose: 200.0 mg/kg/injection, schedule: Q04DX003 (ip), vehicle: saline with Tween-80.
[5] abbreviates: endpoint: mean survival time, dose: 400.0 mg/kg/injection, schedule: Q01DX009 (ip), vehicle: saline with Tween-80.
[6] abbreviates: endpoint: mean survival time, dose: 400.0 mg/kg/injection, schedule: Q04DX003 (ip), vehicle: saline with Tween-80.
Where [7] appears, read: endpoint: mean survival time, dose: 100.0 mg/kg/injection, schedule: Q01DX005 (ip), vehicle: saline.
Where [8] appears, read: endpoint: mean survival time, dose: 200.0 mg/kg/injection, schedule: Q01DX005 (ip), vehicle: saline.
[9] abbreviates: endpoint: mean survival time, dose: 100.0 mg/kg/injection, schedule: Q01DX009 (ip), vehicle: saline.
[10] abbreviates: endpoint: mean survival time, dose: 100.0 mg/kg/injection, schedule: Q04DX003 (ip), vehicle: saline.
The mark [11] stands for this setting: endpoint: mean survival time, dose: 100.0 mg/kg/injection, schedule: Q04DX003 (ip), vehicle: Klucel (hydroxypropylcellulose) (HPC).
The mark [12] stands for this setting: endpoint: mean survival time, dose: 200.0 mg/kg/injection, schedule: Q04DX003 (ip), vehicle: Klucel (hydroxypropylcellulose) (HPC).
The mark [13] stands for this setting: endpoint: mean survival time, dose: 400.0 mg/kg/injection, schedule: Q04DX003 (ip), vehicle: Klucel (hydroxypropylcellulose) (HPC).
The mark [14] stands for this setting: endpoint: mean survival time, dose: 100.0 mg/kg/injection, schedule: Q01DX001 (ip), vehicle: carboxymethylcellulose (CMC).
Where [15] appears, read: endpoint: mean survival time, dose: 200.0 mg/kg/injection, schedule: Q01DX001 (ip), vehicle: carboxymethylcellulose (CMC).
Setting [16] is: endpoint: mean survival time, dose: 400.0 mg/kg/injection, schedule: Q01DX001 (ip), vehicle: carboxymethylcellulose (CMC).

Where “and” joins values, the source holds several entries; their conditions need not be identical. Equal entries are not always repeated. Toxic doses and inconclusive results are not listed.

For `N=c1nc2n(cc1F)C1OC(CO)C(O)C1O2` (stereo not drawn), the T/C is 163 % of control (endpoint: median survival time, dose: 200.0 mg/kg/injection, schedule: Q01DX005 (ip), vehicle: other) and 163 % of control (endpoint: median survival time, dose: 400.0 mg/kg/injection, schedule: Q01DX005 (ip), vehicle: other).

Consider `COc1ccc(OC(=O)CCCl)cc1`, for which the T/C runs as follows: (endpoint: mean survival time, dose: 50.0 mg/kg/injection, schedule: Q01DX009 (ip), vehicle: saline with Tween-80) 98 % of control; (endpoint: mean survival time, dose: 50.0 mg/kg/injection, schedule: Q04DX003 (ip), vehicle: saline with Tween-80) 104 % of control; under setting [1], 104 % of control; under setting [2], 95 % of control; under setting [3], 105 % of control; under setting [4], 95 % of control. Moreover, the T/C by setting is: under setting [5], 121 % of control; under setting [6], 104 % of control.

Regarding `O=C(CBr)c1cc2ncccc2c2ccccc12`, the T/C is 90 % of control (endpoint: mean survival time, dose: 12.5 mg/kg/injection, schedule: Q01DX009 (ip), vehicle: other); 94 % of control (endpoint: mean survival time, dose: 25.0 mg/kg/injection, schedule: Q01DX009 (ip), vehicle: other); 102 % of control (endpoint: mean survival time, dose: 50.0 mg/kg/injection, schedule: Q01DX009 (ip), vehicle: other).

Regarding `COc1ccc(COC2C(O)C(CO)OC2n2cnc3c(N)ncnc32)cc1` (stereo not drawn), the T/C is 92 % of control under setting [7] and 94 % of control under setting [8].

As to `CCOCCOCCOC(C)Oc1ccc(Br)cc1` (stereo not drawn), the T/C was 103 % of control (endpoint: mean survival time, dose: 100.0 mg/kg/injection, schedule: Q04DX002 (ip), vehicle: saline); 103 % of control (endpoint: mean survival time, dose: 200.0 mg/kg/injection, schedule: Q04DX002 (ip), vehicle: saline); 100 % of control (endpoint: mean survival time, dose: 400.0 mg/kg/injection, schedule: Q04DX002 (ip), vehicle: saline).

Turning to `Fc1ccc(C(Cl)Cl)cc1`, the T/C runs as follows: under setting [9], 102 % of control; under setting [10], 97 % of control and 86 % of control; (endpoint: mean survival time, dose: 200.0 mg/kg/injection, schedule: Q01DX009 (ip), vehicle: saline) 99 % of control; (endpoint: mean survival time, dose: 200.0 mg/kg/injection, schedule: Q04DX003 (ip), vehicle: saline) 101 % of control; (endpoint: mean survival time, dose: 400.0 mg/kg/injection, schedule: Q04DX003 (ip), vehicle: saline) 101 % of control and 89 % of control.

On to `Clc1nc(Nc2ccccc2)nc(Nc2ccccc2)n1`, for which the T/C was 96 % of control under setting [11], 93 % of control under setting [12] and 95 % of control under setting [13].

On to `O=c1[nH]cnc2nc(SCc3cccc([N+](=O)[O-])c3)[nH]c12`, for which the T/C runs as follows: (endpoint: mean survival time, dose: 150.0 mg/kg/injection, schedule: Q01DX001 (ip), vehicle: other) 89 % of control; (endpoint: mean survival time, dose: 300.0 mg/kg/injection, schedule: Q01DX001 (ip), vehicle: other) 87 % of control.

As to `CC1=Nc2ccccc2NC(C)C1C` (stereo not drawn), the T/C is, setting by setting: (endpoint: mean survival time, dose: 12.5 mg/kg/injection, schedule: Q01DX009 (ip), vehicle: Klucel (hydroxypropylcellulose) (HPC)) 100 % of control; (endpoint: mean survival time, dose: 25.0 mg/kg/injection, schedule: Q01DX009 (ip), vehicle: Klucel (hydroxypropylcellulose) (HPC)) 96 % of control; (endpoint: mean survival time, dose: 50.0 mg/kg/injection, schedule: Q01DX009 (ip), vehicle: Klucel (hydroxypropylcellulose) (HPC)) 108 % of control; under setting [9], 91 % of control.

In the case of `CCOC(=O)c1c(O)c(C(=O)O)cc2ccccc12`, the T/C was 106 % of control (endpoint: mean survival time, dose: 50.0 mg/kg/injection, schedule: Q01DX001 (ip), vehicle: carboxymethylcellulose (CMC)); 108 % of control under setting [14]; 106 % of control under setting [15]; 106 % of control under setting [16].

With `NC(=O)Nc1nc(-c2ccccc2)no1`, the T/C reads like this: (endpoint: mean survival time, dose: 100.0 mg/kg/injection, schedule: Q01DX009 (ip), vehicle: Klucel (hydroxypropylcellulose) (HPC)) 103 % of control; under setting [11], 97 % of control; (endpoint: mean survival time, dose: 200.0 mg/kg/injection, schedule: Q01DX009 (ip), vehicle: Klucel (hydroxypropylcellulose) (HPC)) 93 % of control; under setting [12], 105 % of control; (endpoint: mean survival time, dose: 400.0 mg/kg/injection, schedule: Q01DX009 (ip), vehicle: Klucel (hydroxypropylcellulose) (HPC)) 95 % of control; under setting [13], 89 % of control.

Turning to `O=C(O)CCC(=O)c1ccc2c(c1)CCCC2`, the T/C is 95 % of control (endpoint: mean survival time, dose: 3.13 mg/kg/injection, schedule: Q01DX009 (ip), vehicle: saline with Tween-80); 92 % of control (endpoint: mean survival time, dose: 6.25 mg/kg/injection, schedule: Q01DX009 (ip), vehicle: saline with Tween-80); 93 % of control (endpoint: mean survival time, dose: 12.5 mg/kg/injection, schedule: Q01DX009 (ip), vehicle: saline with Tween-80).

Regarding `COc1ccc2c(c1)c1c(C)c3cnccc3c(C)c1n2C`, the T/C was 100 % of control (endpoint: mean survival time, dose: 25.0 mg/kg/injection, schedule: Q01DX001 (ip), vehicle: saline); 102 % of control (endpoint: mean survival time, dose: 50.0 mg/kg/injection, schedule: Q01DX001 (ip), vehicle: saline); 102 % of control (endpoint: mean survival time, dose: 89.0 mg/kg/injection, schedule: Q01DX001 (ip), vehicle: carboxymethylcellulose (CMC)); 152 % of control (endpoint: mean survival time, dose: 265.0 mg/kg/injection, schedule: Q01DX001 (ip), vehicle: saline); 107 % of control (endpoint: mean survival time, dose: 267.0 mg/kg/injection, schedule: Q01DX001 (ip), vehicle: carboxymethylcellulose (CMC)); 117 % of control under setting [16]. Moreover, under “endpoint: mean survival time, dose: 400.0 mg/kg/injection, schedule: Q01DX001 (ip), vehicle: saline”, the T/C is 124 % of control.

With `Nc1ccn(C2OC(CO)C(O)C2O)c(=NC(CO)C(=O)O)n1` (stereo not drawn), the T/C was 117 % of control under setting [7] and 120 % of control under setting [8].

Consider `O=C(Nc1cccc2ccccc12)C(F)(F)F`, for which the T/C is, setting by setting: (endpoint: mean survival time, dose: 100.0 mg/kg/injection, schedule: Q01DX001 (ip), vehicle: saline) 93 % of control; under setting [1], 98 % of control; under setting [2], 90 % of control; under setting [3], 104 % of control; under setting [4], 95 % of control; under setting [5], 98 % of control. Further, under setting [6], the T/C is 93 % of control.

Take `C1CCN(CCC2CCNCC2)CC1`: the T/C (endpoint: mean survival time, dose: 25.0 mg/kg/injection, schedule: Q04DX003 (ip), vehicle: saline) was 97 % of control; the T/C (endpoint: mean survival time, dose: 50.0 mg/kg/injection, schedule: Q04DX003 (ip), vehicle: saline) was 97 % of control; the T/C under setting [10] was 99 % of control and 100 % of control.

In the case of `[Tl][CH]1C=CC=C1`, the T/C (endpoint: mean survival time, dose: 100.0 mg/kg/injection, schedule: Q01DX001 (ip), vehicle: acetone) is 93 % of control.

`CCCCCCCCCCOc1ccc(C2=C(c3ccccc3)C(=O)C(c3ccccc3)=C2c2ccccc2)cc1`: the T/C is, setting by setting: under setting [14], 100 % of control; under setting [15], 105 % of control; under setting [16], 94 % of control.

The record behind these values is PubChem BioAssay AID248 (DTP/NCI, 2004).
